Among the data in patent publication US20250129070A1, “BIFUNCTIONAL ANDROGEN RECEPTOR COMPOUNDS” (priority 2023, published 2025) are EC50 values, retold here.

A word on the EC50: it is the concentration giving half of the maximal effect. The low end stands for greater potency, the high end for weaker potency.

For this assay, the system named is AR / CBP ternary complex. The assay can be described thus: Ternary complex formation assay (sandwich ELISA, AR capture / CBP detection) in VCaP cell lysates. In kind it is cell-based. The settings on record: 1.5 hours treatment, sandwich ELISA (AR capture, CBP or p300 detection). In outline: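 VCaP cells (50K/well, 5% charcoal-stripped FBS, ≥3 days) treated with bifunctional compound for 1.5 h, then lysed 30 min at 4 °C. AR captured on anti-AR (AR 441) plates; bound CBP or p300 detected by rabbit mAb plus HRP secondary. QuantaRed chemifluorescence read at ex 570/em 585, immediately and at 5 and 15 min.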
For orientation: ELISA stands for enzyme-linked immunosorbent assay.

On to `CC(=O)N1CCc2c(c(N3CCCc4cc(-c5cnn(C)c5)c(C(F)F)cc43)nn2C2CC3(C2)CN(CC2CN(c4ccc(C(=O)NC5C(C)(C)C(Oc6ccc(C#N)c(Cl)c6)C5(C)C)nn4)C2)C3)C1` (stereo not drawn) [Compound 212, 6-[3-[[6-[5-acetyl-3-[7-(difluoromethyl)-6-(1-methylpyrazol-4-yl)-3,4-dihydro-2H-quinolin-1-yl]-6,7-dihydro-4H-pyrazolo[4,3-c]pyridin-1-yl]-2-azaspiro [3.3]heptan-2-yl]methyl]azetidin-1-yl]-N-[3-(3-chloro-4-cyano-phenoxy)-2,2,4,4-tetramethyl-cyclobutyl]pyridazine-3-carboxamide], for which the EC50 lay in the range of 10 to 100 nM. In the case of `COc1cc(OC2C(C)(C)C(NC(=N)c3ccc(N4CCC(N(C)C5CCC(n6nc(N7CCCc8cc(-c9cnn(C)c9)c(C(F)F)cc87)c7c6CCN(C(C)=O)C7)CC5)CC4)cc3)C2(C)C)ccc1C#N` (stereo not drawn) [Compound 278, 4-[4-[[4-[5-acetyl-3-[7-(difluoromethyl)-6-(1-methylpyrazol-4-yl)-3,4-dihydro-2H-quinolin-1-yl]-6,7-dihydro-4H-pyrazolo[4,3-c]pyridin-1-yl]cyclohexyl]-methyl-amino]-1-piperidyl]-N-[3-(4-cyano-3-methoxy-phenoxy)-2,2,4,4-tetramethyl-cyclobutyl]benzamidine] it was under 1 nM; in that of `CC(=O)N1CCc2c(c(N3CCCc4cc(-c5cnn(C)c5)c(C(F)F)cc43)nn2C2CCN(C(=O)N3CCN(c4ncc(C(=O)NC5C(C)(C)C(Oc6ccc(C#N)c(Cl)c6)C5(C)C)cn4)CC3)CC2)C1` (stereo not drawn) [Compound 112, 2-[4-[4-[5-acetyl-3-[7-(difluoromethyl)-6-(1-methylpyrazol-4-yl)-3,4-dihydro-2H-quinolin-1-yl]-6,7-dihydro-4H-pyrazolo[4,3-c]pyridin-1-yl]piperidine-1-carbonyl]piperazin-1-yl]-N-[3-(3-chloro-4-cyano-phenoxy)-2,2,4,4-tetramethyl-cyclobutyl]pyrimidine-5-carboxamide], under 1 nM; in that of `COc1cc(OC2C(C)(C)C(NC(=O)c3ccc(N4CC5(CCC(N6CCC(n7nc(N8CCCc9cc(-c%10cncs%10)c(C(F)F)cc98)c8c7CCN(C(C)=O)C8)CC6)CC5)C4)cc3)C2(C)C)ccc1C#N` (stereo not drawn) [Compound 428, 4-[7-[4-[5-acetyl-3-[7-(difluoromethyl)-6-thiazol-5-yl-3,4-dihydro-2H-quinolin-1-yl]-6,7-dihydro-4H-pyrazolo[4,3-c]pyridin-1-yl]-1-piperidyl]-2-azaspiro[3.5]nonan-2-yl]-N-[3-(4-cyano-3-methoxy-phenoxy)-2,2,4,4-tetramethyl-cyclobutyl]benzamide], under 1 nM. `CC(=O)N1CCc2c(c(N3CCCc4cc(-c5cnn(C)c5)c(C(F)F)cc43)nn2C2CCN(C3CC(C#Cc4ncc(C(=O)NC5C(C)(C)C(Oc6ccc(C#N)c(Cl)c6)C5(C)C)cn4)C3)CC2)C1` (stereo not drawn) [Compound 295, 2-[2-[3-[4-[5-acetyl-3-[7-(difluoromethyl)-6-(1-methylpyrazol-4-yl)-3,4-dihydro-2H-quinolin-1-yl]-6,7-dihydro-4H-pyrazolo[4,3-c]pyridin-1-yl]-1-piperidyl]cyclobutyl]ethynyl]-N-[3-(3-chloro-4-cyano-phenoxy)-2,2,4,4-tetramethyl-cyclobutyl]pyrimidine-5-carboxamide] yielded a concentration giving a half-maximal response (EC50) of under 1 nM. In the case of `CC(=O)N1CCc2c(c(N3CCCc4cc(-c5cnn(C)c5)c(C(F)F)cc43)nn2C2CCC3(CCCN(C4CN(c5ncc(C(=O)NC6C(C)(C)C(Oc7ccc(C#N)c(Cl)c7)C6(C)C)cn5)C4)C3)CC2)C1` (stereo not drawn) [Compound 414, 2-[3-[9-[5-acetyl-3-[7-(difluoromethyl)-6-(1-methylpyrazol-4-yl)-3,4-dihydro-2H-quinolin-1-yl]-6,7-dihydro-4H-pyrazolo[4,3-c]pyridin-1-yl]-2-azaspiro[5.5]undecan-2-yl]azetidin-1-yl]-N-[3-(3-chloro-4-cyano-phenoxy)-2,2,4,4-tetramethyl-cyclobutyl]pyrimidine-5-carboxamide] it was under 1 nM; in that of `CC(=O)N1CCc2c(c(N3CCCc4cc(-c5cnn(C)c5)c(C)cc43)nn2C2CCN(C(=O)CC3CCN(c4ncc(C(=O)NC5C(C)(C)C(Oc6ccc(C#N)c(Cl)c6)C5(C)C)cn4)CC3)CC2)C1` (stereo not drawn) [Compound 176, 2-[4-[2-[4-[5-acetyl-3-[7-methyl-6-(1-methylpyrazol-4-yl)-3,4-dihydro-2H-quinolin-1-yl]-6,7-dihydro-4H-pyrazolo[4,3-c]pyridin-1-yl]-1-piperidyl]-2-oxo-ethyl]-1-piperidyl]-N-[3-(3-chloro-4-cyano-phenoxy)-2,2,4,4-tetramethyl-cyclobutyl]pyrimidine-5-carboxamide], under 1 nM; in that of `COc1cc(OC2C(C)(C)C(NC(=O)c3ccc(N4CCC(C5CCC(n6nc(N7CCCc8cc(-c9cnn(C)c9)c(C(F)F)cc87)c7c6CCN(C(C)=O)C7)CC5)CC4)cc3)C2(C)C)ccc1C#N` (stereo not drawn) [Compound 258, 4-[4-[4-[5-acetyl-3-[7-(difluoromethyl)-6-(1-methylpyrazol-4-yl)-3,4-dihydro-2H-quinolin-1-yl]-6,7-dihydro-4H-pyrazolo[4,3-c]pyridin-1-yl]cyclohexyl]-1-piperidyl]-N-[3-(4-cyano-3-methoxy-phenoxy)-2,2,4,4-tetramethyl-cyclobutyl]benzamide], 1 to 10 nM.

As to `CC(=O)N1CCc2c(c(N3CCCc4cc(-c5cnn(C)c5)c(C)cc43)nn2C2CN(CCC3CCN(c4ncc(C(=O)NC5C(C)(C)C(Oc6ccc(C#N)c(Cl)c6)C5(C)C)cn4)CC3)C2)C1` (stereo not drawn) [Compound 160, 2-[4-[2-[3-[5-acetyl-3-[7-methyl-6-(1-methylpyrazol-4-yl)-3,4-dihydro-2H-quinolin-1-yl]-6,7-dihydro-4H-pyrazolo[4,3-c]pyridin-1-yl]azetidin-1-yl]ethyl]-1-piperidyl]-N-[3-(3-chloro-4-cyano-phenoxy)-2,2,4,4-tetramethyl-cyclobutyl]pyrimidine-5-carboxamide], the 50% effective concentration (EC50) is over 100 nM. For `CC(=O)N1CCc2c(c(N3CCCc4cc(-c5cnn(C)c5)c(C(F)F)cc43)nn2C2CN(C(=O)C3CCN(c4ncc(C(=O)NC5C(C)(C)C(Oc6ccc(C#N)c(Cl)c6)C5(C)C)cn4)CC3)C2)C1` (stereo not drawn) [Compound 119, 2-[4-[3-[5-acetyl-3-[7-(difluoromethyl)-6-(1-methylpyrazol-4-yl)-3,4-dihydro-2H-quinolin-1-yl]-6,7-dihydro-4H-pyrazolo[4,3-c]pyridin-1-yl]azetidine-1-carbonyl]-1-piperidyl]-N-[3-(3-chloro-4-cyano-phenoxy)-2,2,4,4-tetramethyl-cyclobutyl]pyrimidine-5-carboxamide] the value was under 1 nM; for `COc1cc(OC2C(C)(C)C(NC(=O)c3ccc(N4CCC[C@@H](N5CCC(n6nc(N7CCCc8cc(-c9cnn(C)c9)c(C(F)F)cc87)c7c6CCN(C(C)=O)C7)CC5)C4)cc3)C2(C)C)ccc1C#N` (stereo partly drawn) [Compound 400, 4-[(3R)-3-[4-[5-acetyl-3-[7-(difluoromethyl)-6-(1-methylpyrazol-4-yl)-3,4-dihydro-2H-quinolin-1-yl]-6,7-dihydro-4H-pyrazolo[4,3-c]pyridin-1-yl]-1-piperidyl]-1-piperidyl]-N-[3-(4-cyano-3-methoxy-phenoxy)-2,2,4,4-tetramethyl-cyclobutyl]benzamide], under 1 nM.

With `CC(=O)N1CCc2c(c(N3CCCc4cc(-c5cnn(C)c5)c(C(F)F)cc43)nn2C2CCN(CC3C(C)CN(c4ncc(C(=O)NC5C(C)(C)C(Oc6ccc(C#N)c(C(F)(F)F)c6)C5(C)C)cn4)CC3C)CC2)C1` (stereo not drawn) [Compound 463, 2-[4-[[4-[5-acetyl-3-[7-(difluoromethyl)-6-(1-methylpyrazol-4-yl)-3,4-dihydro-2H-quinolin-1-yl]-6,7-dihydro-4H-pyrazolo[4,3-c]pyridin-1-yl]-1-piperidyl]methyl]-3,5-dimethyl-1-piperidyl]-N-[3-[4-cyano-3-(trifluoromethyl)phenoxy]-2,2,4,4-tetramethyl-cyclobutyl]pyrimidine-5-carboxamide], the half-maximal effective concentration (EC50) is under 1 nM. Take `CC(=O)N1CCc2c(c(N3CCCc4cc(-c5cnn(C)c5)c(C(F)F)cc43)nn2C2CCN(C(=O)C3CCN(c4ccc(C(=O)NC5C(C)(C)C(Oc6ccc(C#N)c(Cl)c6)C5(C)C)cn4)CC3)CC2)C1` (stereo not drawn) [Compound 115, 6-[4-[4-[5-acetyl-3-[7-(difluoromethyl)-6-(1-methylpyrazol-4-yl)-3,4-dihydro-2H-quinolin-1-yl]-6,7-dihydro-4H-pyrazolo[4,3-c]pyridin-1-yl]piperidine-1-carbonyl]-1-piperidyl]-N-[3-(3-chloro-4-cyano-phenoxy)-2,2,4,4-tetramethyl-cyclobutyl]pyridine-3-carboxamide]: the 50% effective concentration (EC50) was under 1 nM. For `COc1cc(OC2C(C)(C)C(NC(=O)c3ccc(N4CC5(CCC(N6CCC(n7nc(N8CCCc9cc(-c%10cn(C)cn%10)c(C(F)F)cc98)c8c7CCN(C(C)=O)C8)CC6)CC5)C4)cc3)C2(C)C)ccc1C#N` (stereo not drawn) [Compound 426, 4-[7-[4-[5-acetyl-3-[7-(difluoromethyl)-6-(1-methylimidazol-4-yl)-3,4-dihydro-2H-quinolin-1-yl]-6,7-dihydro-4H-pyrazolo[4,3-c]pyridin-1-yl]-1-piperidyl]-2-azaspiro[3.5]nonan-2-yl]-N-[3-(4-cyano-3-methoxy-phenoxy)-2,2,4,4-tetramethyl-cyclobutyl]benzamide] the value was under 1 nM; for `CC(=O)N1CCc2c(c(N3CCCc4cc(-c5cnn(C)c5)c(C(F)F)cc43)nn2C2CCC(N(C)C3CCN(c4ncc(C(=O)NC5C(C)(C)C(Oc6ccc(C#N)c(Cl)c6)C5(C)C)cn4)CC3)CC2)C1` (stereo not drawn) [Compound 282, 2-[4-[[4-[5-acetyl-3-[7-(difluoromethyl)-6-(1-methylpyrazol-4-yl)-3,4-dihydro-2H-quinolin-1-yl]-6,7-dihydro-4H-pyrazolo[4,3-c]pyridin-1-yl]cyclohexyl]-methyl-amino]-1-piperidyl]-N-[3-(3-chloro-4-cyano-phenoxy)-2,2,4,4-tetramethyl-cyclobutyl]pyrimidine-5-carboxamide], under 1 nM.
